{"source": "patent US20250186437A1", "about": "“CARBOLINE COMPOUNDS AND USE THEREOF” (PTC Therapeutics, Inc., priority 2021, published 2025)", "data": [{"test_system": "MOLM-13 cells", "assay": "MOLM-13 Cell Proliferation Assay (indicator of DHODH inhibition)", "assay_type": "cell-based", "settings": "72 Hours of culture, CellTiter-Glo, no uridine", "procedure,_shortened": "(§1)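 Low-passage MOLM-13 cells (10^4/well) in RPMI 1640 + 10% FBS exposed to compound (0.5% DMSO final) for 72 h at 37 °C, 5% CO2. Viability read by CellTiter-Glo luminescence; growth reflects de novo pyrimidine synthesis dependent on DHODH.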", "units": {"IC50": "nM"}, "values": [{"smiles": "COC(=O)c1ncc([C@H]2c3[nH]c4ccc(Cl)cc4c3CCN2c2nc(C(F)(F)F)nc(C(F)(F)F)n2)cn1", "note": "[Compound 532, methyl 5-{(1S)-2-[4,6-bis(trifluoromethyl)-1,3,5-triazin-2-yl]-6-chloro-2,3,4,9-tetrahydro-1H-pyrido[3,4-b]indol-1-yl} pyrimidine-2-carboxylate]", "IC50": 8.1}]}, {"test_system": "MOLM-13 cells", "assay": "MOLM-13 Cell Proliferation Assay (indicator of DHODH inhibition)", "assay_type": "cell-based", "settings": "Homo sapiens, 72 Hours of culture, CellTiter-Glo, no uridine", "procedure,_shortened": "as §1", "units": {"IC50": "nM"}, "values": [{"smiles": "CN1CCN(c2ncc([C@H]3c4[nH]c5ccc(Cl)cc5c4CCN3c3nc(C(F)F)nc(C(F)(F)F)n3)cn2)CC1", "note": "[Compound 508, (1S)-6-chloro-2-[4-(difluoromethyl)-6-(trifluoromethyl)-1,3,5-triazin-2-yl]-1-[2-(4-methylpiperazin-1-yl)pyrimidin-5-yl]-2,3,4,9-tetrahydro-1H-pyrido[3,4-b]indole]", "IC50": 0.8}, {"smiles": "CN1CCN(c2ncc([C@H]3c4[nH]c5ccc(Cl)cc5c4CCN3c3nc(N4CCOCC4)nc(C(F)(F)F)n3)cn2)CC1", "note": "[Compound 509, (1S)-6-chloro-1-[2-(4-methylpiperazin-1-yl)pyrimidin-5-yl]-2-[4-(morpholin-4-yl)-6-(trifluoromethyl)-1,3,5-triazin-2-yl]-2,3,4,9-tetrahydro-1H-pyrido[3,4-b]indole]", "IC50": 8.1}, {"smiles": "Cc1ccc([C@H]2c3[nH]c4ccc(Cl)cc4c3CCN2c2nc(C(F)F)nc(C(F)(F)F)n2)c(F)c1F", "note": "[Compound 510, (1S)-6-chloro-1-(2,3-difluoro-4-methylphenyl)-2-[4-(difluoromethyl)-6-(trifluoromethyl)-1,3,5-triazin-2-yl]-2,3,4,9-tetrahydro-1H-pyrido[3,4-b]indole]", "IC50": 0.1}, {"smiles": "C[C@@H]1CN(c2ncc([C@H]3c4[nH]c5ccc(Cl)cc5c4CCN3c3nc(C(F)(F)F)cc(C(F)(F)F)n3)cn2)CCN1", "note": "[Compound 511, (1S)-2-[4,6-bis(trifluoromethyl)pyrimidin-2-yl]-6-chloro-1-{2-[(3R)-3-methylpiperazin-1-yl]pyrimidin-5-yl}-2,3,4,9-tetrahydro-1H-pyrido[3,4-b]indole]", "IC50": 3.8}, {"smiles": "FC(F)(F)c1cc(C(F)(F)F)nc(N2CCc3c([nH]c4ccc(Cl)cc34)[C@@H]2c2cnc(N3CCNC4(CC4)C3)nc2)n1", "note": "[Compound 512, (1S)-2-[4,6-bis(trifluoromethyl)pyrimidin-2-yl]-6-chloro-1-[2-(4,7-diazaspiro[2.5]octan-7-yl)pyrimidin-5-yl]-2,3,4,9-tetrahydro-1H-pyrido[3,4-b]indole]", "IC50": 1.6}, {"smiles": "CN1CCN(c2ccc(C3c4[nH]c5ccc(-n6nccn6)cc5c4CCN3c3nccc(C(F)(F)F)n3)cn2)CC1", "note": "(stereo not shown) [Compound 513, 1-[6-(4-methylpiperazin-1-yl)pyridin-3-yl]-6-(2H-1,2,3-triazol-2-yl)-2-[4-(trifluoromethyl)pyrimidin-2-yl]-2,3,4,9-tetrahydro-1H-pyrido[3,4-b]indole]", "IC50": 11.2}, {"smiles": "FC(F)(F)c1cc(C(F)(F)F)nc(N2CCc3c([nH]c4ccc(-n5nccn5)cc34)[C@@H]2c2cnc(N3CCOCC3)nc2)n1", "note": "[Compound 514, (1S)-2-[4,6-bis(trifluoromethyl)pyrimidin-2-yl]-1-[2-(morpholin-4-yl)pyrimidin-5-yl]-6-(2H-1,2,3-triazol-2-yl)-2,3,4,9-tetrahydro-1H-pyrido[3,4-b]indole]", "IC50": 0.6}, {"smiles": "FC(F)(F)c1nc(N2CCc3c([nH]c4ccc(-n5nccn5)cc34)[C@@H]2c2cnc(N3CCOCC3)nc2)nc(C(F)(F)F)n1", "note": "[Compound 516, (1S)-2-[4,6-bis(trifluoromethyl)-1,3,5-triazin-2-yl]-1-[2-(morpholin-4-yl)pyrimidin-5-yl]-6-(2H-1,2,3-triazol-2-yl)-2,3,4,9-tetrahydro-1H-pyrido[3,4-b]indole]", "IC50": 1.4}, {"smiles": "C[C@H]1CN(c2ncc([C@H]3c4[nH]c5ccc(Cl)cc5c4CCN3c3nc(C(F)(F)F)cc(C(F)(F)F)n3)cn2)CCN1", "note": "[Compound 517, (1S)-2-[4,6-bis(trifluoromethyl)pyrimidin-2-yl]-6-chloro-1-{2-[(3S)-3-methylpiperazin-1-yl]pyrimidin-5-yl}-2,3,4,9-tetrahydro-1H-pyrido[3,4-b]indole]", "IC50": 3.2}, {"smiles": "Cc1ccc([C@H]2c3[nH]c4ccc(Br)cc4c3CCN2c2nc(C(F)(F)F)cc(C(F)(F)F)n2)c(F)c1F", "note": "[Compound 518, (1S)-2-[4,6-bis(trifluoromethyl)pyrimidin-2-yl]-6-bromo-1-(2,3-difluoro-4-methylphenyl)-2,3,4,9-tetrahydro-1H-pyrido[3,4-b]indole]", "IC50": 0.8}, {"smiles": "Cc1ccc([C@H]2c3[nH]c4ccc(-n5nccn5)cc4c3CCN2c2nc(C(F)(F)F)cc(C(F)(F)F)n2)c(F)c1F", "note": "[Compound 519, (1S)-2-[4,6-bis(trifluoromethyl)pyrimidin-2-yl]-1-(2,3-difluoro-4-methylphenyl)-6-(2H-1,2,3-triazol-2-yl)-2,3,4,9-tetrahydro-1H-pyrido[3,4-b]indole]", "IC50": 0.3}, {"smiles": "Cc1cnn(-c2ccc3[nH]c4c(c3c2)CCN(c2nc(C(F)(F)F)cc(C(F)(F)F)n2)[C@H]4c2ccc(C)c(F)c2F)n1", "note": "[Compound 520, (1S)-2-[4,6-bis(trifluoromethyl)pyrimidin-2-yl]-1-(2,3-difluoro-4-methylphenyl)-6-(4-methyl-2H-1,2,3-triazol-2-yl)-2,3,4,9-tetrahydro-1H-pyrido[3,4-b]indole]", "IC50": 1.7}, {"smiles": "Cc1ccc([C@H]2c3[nH]c4ccc(Cl)cc4c3CCN2c2nc(CO)nc(C(F)(F)F)n2)c(F)c1F", "note": "[Compound 521, {4-[(1S)-6-chloro-1-(2,3-difluoro-4-methylphenyl)-1,3,4,9-tetrahydro-2H-pyrido[3,4-b]indol-2-yl]-6-(trifluoromethyl)-1,3,5-triazin-2-yl}methanol]", "IC50": 3.3}, {"smiles": "COc1ncc([C@H]2c3[nH]c4ccc(Cl)cc4c3CCN2c2nc(C(F)(F)F)nc(C(F)(F)F)n2)cn1", "note": "[Compound 522, (1S)-2-[4,6-bis(trifluoromethyl)-1,3,5-triazin-2-yl]-6-chloro-1-(2-methoxypyrimidin-5-yl)-2,3,4,9-tetrahydro-1H-pyrido[3,4-b]indole]", "IC50": 0.7}, {"smiles": "Cc1ccc([C@H]2c3[nH]c4ccc(Br)cc4c3CCN2c2nc(C(F)(F)F)nc(C(F)(F)F)n2)c(F)c1F", "note": "[Compound 523, (1S)-2-[4,6-bis(trifluoromethyl)-1,3,5-triazin-2-yl]-6-bromo-1-(2,3-difluoro-4-methylphenyl)-2,3,4,9-tetrahydro-1H-pyrido[3,4-b]indole]", "IC50": 0.6}, {"smiles": "Cc1ccc([C@H]2c3[nH]c4ccc(-n5nccn5)cc4c3CCN2c2nc(C(F)(F)F)nc(C(F)(F)F)n2)c(F)c1F", "note": "[Compound 524, (1S)-2-[4,6-bis(trifluoromethyl)-1,3,5-triazin-2-yl]-1-(2,3-difluoro-4-methylphenyl)-6-(2H-1,2,3-triazol-2-yl)-2,3,4,9-tetrahydro-1H-pyrido[3,4-b]indole]", "IC50": 0.3}, {"smiles": "Cc1cnn(-c2ccc3[nH]c4c(c3c2)CCN(c2nc(C(F)(F)F)nc(C(F)(F)F)n2)[C@H]4c2ccc(C)c(F)c2F)n1", "note": "[Compound 525, (1S)-2-[4,6-bis(trifluoromethyl)-1,3,5-triazin-2-yl]-1-(2,3-difluoro-4-methylphenyl)-6-(4-methyl-2H-1,2,3-triazol-2-yl)-2,3,4,9-tetrahydro-1H-pyrido[3,4-b]indole]", "IC50": 1.3}, {"smiles": "Cc1ccc([C@H]2c3[nH]c4ccc(Cl)cc4c3CCN2c2nc(CF)nc(C(F)(F)F)n2)c(F)c1F", "note": "[Compound 526, (1S)-6-chloro-1-(2,3-difluoro-4-methylphenyl)-2-[4-(fluoromethyl)-6-(trifluoromethyl)-1,3,5-triazin-2-yl]-2,3,4,9-tetrahydro-1H-pyrido[3,4-b]indole]", "IC50": 0.5}, {"smiles": "Cc1ccc([C@H]2c3[nH]c4ccc([N+](=O)[O-])cc4c3CCN2c2nc(C(F)(F)F)nc(C(F)(F)F)n2)c(F)c1F", "note": "[Compound 527, (1S)-2-[4,6-bis(trifluoromethyl)-1,3,5-triazin-2-yl]-1-(2,3-difluoro-4-methylphenyl)-6-nitro-2,3,4,9-tetrahydro-1H-pyrido[3,4-b]indole]", "IC50": 0.6}, {"smiles": "COc1ccc2[nH]c3c(c2c1)CCN(c1nc(C(F)(F)F)cc(C(F)(F)F)n1)[C@H]3c1ccc(C)c(F)c1F", "note": "[Compound 528, (1S)-2-[4,6-bis(trifluoromethyl)pyrimidin-2-yl]-1-(2,3-difluoro-4-methylphenyl)-6-methoxy-2,3,4,9-tetrahydro-1H-pyrido[3,4-b]indole]", "IC50": 1.2}, {"smiles": "Cc1cnn(-c2ccc3[nH]c4c(c3c2)CCN(c2nc(C(F)(F)F)nc(C(F)(F)F)n2)[C@H]4c2ccc(C)c(F)c2F)c1", "note": "[Compound 529, (1S)-2-[4,6-bis(trifluoromethyl)-1,3,5-triazin-2-yl]-1-(2,3-difluoro-4-methylphenyl)-6-(4-methyl-1H-pyrazol-1-yl)-2,3,4,9-tetrahydro-1H-pyrido[3,4-b]indole]", "IC50": 4.1}, {"smiles": "Cc1ccn(-c2ccc3[nH]c4c(c3c2)CCN(c2nc(C(F)(F)F)nc(C(F)(F)F)n2)[C@H]4c2ccc(C)c(F)c2F)n1", "note": "[Compound 530, (1S)-2-[4,6-bis(trifluoromethyl)-1,3,5-triazin-2-yl]-1-(2,3-difluoro-4-methylphenyl)-6-(3-methyl-1H-pyrazol-1-yl)-2,3,4,9-tetrahydro-1H-pyrido[3,4-b]indole]", "IC50": 10.9}, {"smiles": "CN(C)CCNc1ncc([C@H]2c3[nH]c4ccc(Cl)cc4c3CCN2c2nc(C(F)(F)F)nc(C(F)(F)F)n2)cn1", "note": "[Compound 531, N^2-(5-{(1S)-2-[4,6-bis(trifluoromethyl)-1,3,5-triazin-2-yl]-6-chloro-2,3,4,9-tetrahydro-1H-pyrido[3,4-b]indol-1-yl}pyrimidin-2-yl)-N^1,N^1-dimethylethane-1,2-diamine]", "IC50": 5}, {"smiles": "CC(=O)c1ncc([C@H]2c3[nH]c4ccc(Cl)cc4c3CCN2c2nc(C(F)(F)F)nc(C(F)(F)F)n2)cn1", "note": "[Compound 533, 1-(5-{(1S)-2-[4,6-bis(trifluoromethyl)-1,3,5-triazin-2-yl]-6-chloro-2,3,4,9-tetrahydro-1H-pyrido[3,4-b]indol-1-yl}pyrimidin-2-yl)ethan-1-one]", "IC50": 4.7}]}]}
